Assay results taken from ChEMBL document CHEMBL1909046, “DrugMatrix in vitro pharmacology data”.

Assays:
[1] = target: T1, Cysteinyl leukotriene receptor 1 (Homo sapiens, UniProt Q9Y271); format: cell membranes, CHO-K1, Membrane; conditions: cho-k1; note: in other assays of this panel Not Active means under 50% inhibition at 10 µM
T1 sequence (Q9Y271 whole entry): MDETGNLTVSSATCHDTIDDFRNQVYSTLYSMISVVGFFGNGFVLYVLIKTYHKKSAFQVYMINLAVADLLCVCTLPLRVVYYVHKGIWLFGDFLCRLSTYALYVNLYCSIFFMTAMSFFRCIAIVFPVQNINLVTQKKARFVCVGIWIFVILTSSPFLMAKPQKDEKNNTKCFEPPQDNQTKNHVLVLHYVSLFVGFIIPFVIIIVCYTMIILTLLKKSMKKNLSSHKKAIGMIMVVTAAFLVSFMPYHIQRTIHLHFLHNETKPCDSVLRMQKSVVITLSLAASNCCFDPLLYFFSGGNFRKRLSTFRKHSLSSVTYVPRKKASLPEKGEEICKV

Substance-K receptor = target: T2, Substance-K receptor (Homo sapiens, UniProt P21452); format: cell membranes, CHO, Membrane; conditions: cho; note: in other assays of this panel Not Active means under 50% inhibition at 10 µM
T2 sequence (P21452 whole entry): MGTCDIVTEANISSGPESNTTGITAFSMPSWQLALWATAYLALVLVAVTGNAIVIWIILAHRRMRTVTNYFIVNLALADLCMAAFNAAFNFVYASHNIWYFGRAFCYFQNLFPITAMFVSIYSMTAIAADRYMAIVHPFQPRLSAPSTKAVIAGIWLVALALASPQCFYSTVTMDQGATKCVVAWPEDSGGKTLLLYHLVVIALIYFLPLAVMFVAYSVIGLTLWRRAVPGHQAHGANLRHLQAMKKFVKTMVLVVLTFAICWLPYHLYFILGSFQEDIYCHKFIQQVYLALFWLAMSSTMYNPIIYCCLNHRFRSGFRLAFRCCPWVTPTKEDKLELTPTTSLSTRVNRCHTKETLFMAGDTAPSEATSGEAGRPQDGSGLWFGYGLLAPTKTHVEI

Calcitonin receptor = target: T3, Calcitonin receptor (Homo sapiens, UniProt P30988); format: cell membranes, Membrane; conditions: t47d; note: in other assays of this panel Not Active means under 50% inhibition at 10 µM
T3 sequence (P30988 whole entry): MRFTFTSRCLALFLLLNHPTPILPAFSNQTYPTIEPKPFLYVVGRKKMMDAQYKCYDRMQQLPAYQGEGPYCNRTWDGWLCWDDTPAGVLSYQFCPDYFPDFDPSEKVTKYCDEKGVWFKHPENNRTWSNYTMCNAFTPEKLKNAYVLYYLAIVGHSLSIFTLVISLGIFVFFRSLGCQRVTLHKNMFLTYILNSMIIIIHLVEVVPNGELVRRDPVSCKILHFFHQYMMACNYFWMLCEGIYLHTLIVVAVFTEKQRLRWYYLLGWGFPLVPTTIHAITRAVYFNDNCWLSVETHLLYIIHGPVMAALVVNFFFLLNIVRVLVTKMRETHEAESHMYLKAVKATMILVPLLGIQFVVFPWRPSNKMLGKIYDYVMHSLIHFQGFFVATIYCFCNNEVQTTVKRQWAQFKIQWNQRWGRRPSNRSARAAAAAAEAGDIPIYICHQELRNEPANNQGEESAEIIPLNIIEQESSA

Carbonic anhydrase 2 = Carbonic anhydrase 2 (Homo sapiens, UniProt P00918); assay: DRUGMATRIX: Carbonic Anhydrase II enzyme inhibition (substrate: 4-Nitrophenyl acetate (4-NPA)); format: tissue-based, Erythrocyte; conditions: erythrocyte; Not Active = under 50% inhibition at 10 µM
[2] = target: 5-hydroxytryptamine receptor 2B (Homo sapiens, UniProt P41595); format: cell membranes, CHO-K1, Membrane; conditions: cho-k1; note: in other assays of this panel Not Active means under 50% inhibition at 10 µM
Neutrophil elastase = target: T4, Neutrophil elastase (Homo sapiens, UniProt P08246); format: tissue-based
T4 sequence (P08246 whole entry): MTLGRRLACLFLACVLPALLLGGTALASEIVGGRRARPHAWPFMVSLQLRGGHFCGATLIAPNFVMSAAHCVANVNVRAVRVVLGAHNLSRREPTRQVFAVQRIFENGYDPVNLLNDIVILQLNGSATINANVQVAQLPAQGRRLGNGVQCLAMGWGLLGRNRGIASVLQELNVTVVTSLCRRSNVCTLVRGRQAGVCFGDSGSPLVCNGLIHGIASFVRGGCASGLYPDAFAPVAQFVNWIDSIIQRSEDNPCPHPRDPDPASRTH

[3] = target: Tyrosine-protein kinase Fyn (Homo sapiens, UniProt P06241); assay: biochemical; format: cell-based, Insect cells; conditions: insect cells
[4] = DRUGMATRIX: Glutamate, NMDA, Agonism radioligand binding (ligand: [3H] CGP-39653); format: cell membranes, Rattus norvegicus, Wistar, Cerebral cortex, Membrane; conditions: Not Active = under 50% inhibition at 10 µM
[5] = DRUGMATRIX: Glutamate, AMPA radioligand binding (ligand: [3H] AMPA); format: cell membranes, Rattus norvegicus, Wistar, Cerebral cortex, Membrane; conditions: Not Active = under 50% inhibition at 10 µM
[6] = DRUGMATRIX: Atrial Natriuretic Factor (ANF) radioligand binding (ligand: [125I] ANF (rat)); format: cell membranes, Cavia porcellus, Dunkin-Hartley, Adrenal gland, Membrane; conditions: Not Active = under 50% inhibition at 10 µM
Substance-P receptor = Substance-P receptor (Homo sapiens, UniProt P25103); format: cell membranes, CHO, Membrane; conditions: cho; note: in other assays of this panel Not Active means under 50% inhibition at 10 µM
[7] = DRUGMATRIX: Glutamate, NMDA, Phencyclidine radioligand binding (ligand: [3H] TCP); format: cell membranes, Rattus norvegicus, Wistar, Cerebral cortex, Membrane; conditions: Not Active = under 50% inhibition at 10 µM
[8] = target: T5, C-X-C chemokine receptor type 1 (Homo sapiens, UniProt P25024); note: in other assays of this panel Not Active means under 50% inhibition at 10 µM
T5 sequence (P25024 whole entry): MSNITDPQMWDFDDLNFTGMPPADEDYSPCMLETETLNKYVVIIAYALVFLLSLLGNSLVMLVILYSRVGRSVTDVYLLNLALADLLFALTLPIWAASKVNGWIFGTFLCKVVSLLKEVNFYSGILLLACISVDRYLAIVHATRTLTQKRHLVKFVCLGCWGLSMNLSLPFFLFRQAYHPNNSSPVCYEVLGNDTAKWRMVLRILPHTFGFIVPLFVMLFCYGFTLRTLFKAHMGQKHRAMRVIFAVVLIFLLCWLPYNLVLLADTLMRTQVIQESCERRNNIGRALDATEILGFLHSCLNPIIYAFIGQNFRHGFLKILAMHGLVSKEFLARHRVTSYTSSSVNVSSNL

Cytochrome P450 2E1 = Cytochrome P450 2E1 (Homo sapiens, UniProt P05181); conditions: bti-tn-5b1-4; note: in other assays of this panel Not Active means under 50% inhibition at 10 µM
[9] = target: Tyrosine-protein kinase Lck (Homo sapiens, UniProt P06239); assay: DRUGMATRIX: Protein Tyrosine Kinase, LCK enzyme inhibition (substrate: Poly(Glu:Tyr)); format: cell-based, Insect cells; conditions: insect cells; Not Active = under 50% inhibition at 10 µM
Tyrosine-protein kinase Lck, sequence (P06239 whole entry): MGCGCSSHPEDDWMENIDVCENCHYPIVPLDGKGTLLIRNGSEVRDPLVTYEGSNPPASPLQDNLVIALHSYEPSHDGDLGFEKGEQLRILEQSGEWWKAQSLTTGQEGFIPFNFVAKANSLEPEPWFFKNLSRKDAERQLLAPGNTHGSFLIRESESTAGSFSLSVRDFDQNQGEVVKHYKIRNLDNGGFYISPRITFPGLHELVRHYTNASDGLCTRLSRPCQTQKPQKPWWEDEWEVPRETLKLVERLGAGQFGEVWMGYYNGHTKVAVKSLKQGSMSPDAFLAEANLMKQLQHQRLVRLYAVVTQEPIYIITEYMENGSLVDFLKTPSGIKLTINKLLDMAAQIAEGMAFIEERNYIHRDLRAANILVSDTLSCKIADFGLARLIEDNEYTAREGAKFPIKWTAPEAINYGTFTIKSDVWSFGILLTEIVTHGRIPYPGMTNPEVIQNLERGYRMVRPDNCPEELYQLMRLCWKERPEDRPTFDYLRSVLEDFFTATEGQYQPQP

Tyrosine-protein kinase Fyn, sequence (P06241 whole entry): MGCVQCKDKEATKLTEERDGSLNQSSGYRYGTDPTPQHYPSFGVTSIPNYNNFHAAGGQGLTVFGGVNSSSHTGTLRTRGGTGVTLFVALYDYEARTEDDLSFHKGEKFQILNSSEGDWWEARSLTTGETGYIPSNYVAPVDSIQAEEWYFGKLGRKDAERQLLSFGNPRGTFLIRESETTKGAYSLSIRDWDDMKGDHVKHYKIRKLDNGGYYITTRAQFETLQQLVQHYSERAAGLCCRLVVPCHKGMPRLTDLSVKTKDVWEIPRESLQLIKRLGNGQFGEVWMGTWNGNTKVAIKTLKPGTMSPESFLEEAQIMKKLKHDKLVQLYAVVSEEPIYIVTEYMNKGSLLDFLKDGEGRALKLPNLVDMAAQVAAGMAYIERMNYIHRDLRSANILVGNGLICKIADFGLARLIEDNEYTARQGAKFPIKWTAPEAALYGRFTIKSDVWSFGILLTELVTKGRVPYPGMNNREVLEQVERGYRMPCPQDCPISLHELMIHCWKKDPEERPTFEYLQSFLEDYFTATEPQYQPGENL
Substance-P receptor, sequence (P25103 whole entry): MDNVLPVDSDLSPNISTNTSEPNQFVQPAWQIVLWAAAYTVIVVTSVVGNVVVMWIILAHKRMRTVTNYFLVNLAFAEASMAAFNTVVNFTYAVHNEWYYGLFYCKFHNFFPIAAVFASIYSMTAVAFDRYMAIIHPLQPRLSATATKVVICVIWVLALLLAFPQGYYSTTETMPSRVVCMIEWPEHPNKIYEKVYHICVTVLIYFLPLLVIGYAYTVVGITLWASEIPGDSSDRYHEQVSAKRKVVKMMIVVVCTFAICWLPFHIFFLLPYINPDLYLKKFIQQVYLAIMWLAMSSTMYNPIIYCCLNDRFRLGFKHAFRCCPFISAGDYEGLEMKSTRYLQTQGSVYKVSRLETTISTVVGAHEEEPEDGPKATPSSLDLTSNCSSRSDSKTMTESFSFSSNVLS
Cytochrome P450 2E1, sequence (P05181 whole entry): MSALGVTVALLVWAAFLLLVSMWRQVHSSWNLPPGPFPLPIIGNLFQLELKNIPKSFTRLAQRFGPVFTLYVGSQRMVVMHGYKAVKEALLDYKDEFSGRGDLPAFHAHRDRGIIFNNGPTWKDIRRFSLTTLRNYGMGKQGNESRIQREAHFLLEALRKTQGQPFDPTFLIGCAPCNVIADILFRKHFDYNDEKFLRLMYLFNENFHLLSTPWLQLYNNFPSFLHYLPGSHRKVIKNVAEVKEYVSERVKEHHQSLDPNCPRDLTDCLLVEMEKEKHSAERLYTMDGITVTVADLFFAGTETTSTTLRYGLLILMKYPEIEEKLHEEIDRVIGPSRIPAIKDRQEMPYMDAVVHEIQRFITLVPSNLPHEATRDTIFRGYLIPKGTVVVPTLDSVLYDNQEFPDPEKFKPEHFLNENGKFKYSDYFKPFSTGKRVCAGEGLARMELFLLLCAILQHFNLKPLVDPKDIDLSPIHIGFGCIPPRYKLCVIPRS
5-hydroxytryptamine receptor 2B, sequence (P41595 whole entry): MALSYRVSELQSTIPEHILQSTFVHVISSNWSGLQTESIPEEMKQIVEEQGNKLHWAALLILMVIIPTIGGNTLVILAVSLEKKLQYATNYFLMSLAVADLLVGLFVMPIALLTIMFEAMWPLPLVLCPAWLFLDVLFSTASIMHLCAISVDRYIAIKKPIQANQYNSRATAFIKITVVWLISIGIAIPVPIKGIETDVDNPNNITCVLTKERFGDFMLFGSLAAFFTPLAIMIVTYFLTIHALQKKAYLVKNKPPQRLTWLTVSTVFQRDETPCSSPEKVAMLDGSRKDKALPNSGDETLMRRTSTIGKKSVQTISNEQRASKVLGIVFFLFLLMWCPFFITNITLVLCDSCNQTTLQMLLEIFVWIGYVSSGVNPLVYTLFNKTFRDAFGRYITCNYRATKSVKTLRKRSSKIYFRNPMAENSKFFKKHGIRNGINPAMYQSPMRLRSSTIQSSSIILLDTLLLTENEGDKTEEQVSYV

CC(=O)S[C@@H]1CC2=CC(=O)CC[C@]2(C)[C@H]2CC[C@@]3(C)[C@@H](CC[C@@]34CCC(=O)O4)[C@H]12 [SPIRONOLACTONE]
Not Active: IC50 [1] | IC50 (Substance-K receptor) | IC50 (Calcitonin receptor) | IC50 (Carbonic anhydrase 2) | IC50 [2] | IC50 (Neutrophil elastase) | IC50 [3] | IC50 [4] | Ki [4] | IC50 [5] | Ki [5] | IC50 [6] | Ki [6] | IC50 (Substance-P receptor) | IC50 [7] | Ki [7] | IC50 [8] | IC50 (Cytochrome P450 2E1) | Ki (Cytochrome P450 2E1) | IC50 [9]

COc1cc(C(=O)NC2CCCNC2)cc(OC)c1OC (stereo not given) [TROXIPIDE]
Not Active: IC50 [1] | IC50 (Substance-K receptor) | IC50 (Calcitonin receptor) | IC50 (Carbonic anhydrase 2) | IC50 [2] | IC50 (Neutrophil elastase) | IC50 [3] | IC50 [4] | Ki [4] | IC50 [5] | Ki [5] | IC50 [6] | Ki [6] | IC50 (Substance-P receptor) | IC50 [7] | Ki [7] | IC50 [8] | IC50 (Cytochrome P450 2E1) | Ki (Cytochrome P450 2E1) | IC50 [9]

Cc1ccc(C(=O)C(C)CN2CCCCC2)cc1 (stereo not given) [TOLPERISONE]
Not Active: IC50 [1] | IC50 (Substance-K receptor) | IC50 (Calcitonin receptor) | IC50 (Carbonic anhydrase 2) | IC50 [2] | IC50 (Neutrophil elastase) | IC50 [3] | IC50 [4] | Ki [4] | IC50 [5] | Ki [5] | IC50 [6] | Ki [6] | IC50 (Substance-P receptor) | IC50 [7] | Ki [7] | IC50 [8] | IC50 (Cytochrome P450 2E1) | Ki (Cytochrome P450 2E1) | IC50 [9]

NC(=O)c1ccccc1O [SALICYLAMIDE]
Not Active: IC50 [1] | IC50 (Substance-K receptor) | IC50 (Calcitonin receptor) | IC50 (Carbonic anhydrase 2) | IC50 [2] | IC50 (Neutrophil elastase) | IC50 [3] | IC50 [4] | Ki [4] | IC50 [5] | Ki [5] | IC50 [6] | Ki [6] | IC50 (Substance-P receptor) | IC50 [7] | Ki [7] | IC50 [8] | IC50 (Cytochrome P450 2E1) | Ki (Cytochrome P450 2E1) | IC50 [9]

CCC[C@@H]1C[C@@H](C(=O)N[C@@H]([C@H]2O[C@H](SC)[C@H](O)[C@@H](O)[C@H]2O)[C@@H](C)O)N(C)C1 [LINCOMYCIN]
Not Active: IC50 [1] | IC50 (Substance-K receptor) | IC50 (Calcitonin receptor) | IC50 (Carbonic anhydrase 2) | IC50 [2] | IC50 (Neutrophil elastase) | IC50 [3] | IC50 [4] | Ki [4] | IC50 [5] | Ki [5] | IC50 [6] | Ki [6] | IC50 (Substance-P receptor) | IC50 [7] | Ki [7] | IC50 [8] | IC50 (Cytochrome P450 2E1) | Ki (Cytochrome P450 2E1) | IC50 [9]

NNc1ccccc1 [PHENYLHYDRAZINE]
Not Active: IC50 [1] | IC50 (Substance-K receptor) | IC50 (Calcitonin receptor) | IC50 (Carbonic anhydrase 2) | IC50 [2] | IC50 (Neutrophil elastase) | IC50 [3] | IC50 [4] | Ki [4] | IC50 [5] | Ki [5] | IC50 [6] | Ki [6] | IC50 (Substance-P receptor) | IC50 [7] | Ki [7] | IC50 [8] | IC50 (Cytochrome P450 2E1) | Ki (Cytochrome P450 2E1) | IC50 [9]

NC(CO)(CO)CO [TROMETHAMINE]
Not Active: IC50 [1] | IC50 (Substance-K receptor) | IC50 (Calcitonin receptor) | IC50 (Carbonic anhydrase 2) | IC50 [2] | IC50 (Neutrophil elastase) | IC50 [3] | IC50 [4] | Ki [4] | IC50 [5] | Ki [5] | IC50 [6] | Ki [6] | IC50 (Substance-P receptor) | IC50 [7] | Ki [7] | IC50 [8] | IC50 (Cytochrome P450 2E1) | Ki (Cytochrome P450 2E1) | IC50 [9]

CC[C@H]1OC(=O)[C@H](C)[C@@H](O[C@H]2C[C@@](C)(OC)[C@@H](O)[C@H](C)O2)[C@H](C)[C@@H](O[C@@H]2O[C@H](C)C[C@H](N(C)C)[C@H]2O)[C@](C)(O)C[C@@H](C)/C(=N\OCOCCOC)[C@H](C)[C@@H](O)[C@]1(C)O [ROXITHROMYCIN]
Not Active: IC50 [1] | IC50 (Substance-K receptor) | IC50 (Calcitonin receptor) | IC50 (Carbonic anhydrase 2) | IC50 [2] | IC50 (Neutrophil elastase) | IC50 [3] | IC50 [4] | Ki [4] | IC50 [5] | Ki [5] | IC50 [6] | Ki [6] | IC50 (Substance-P receptor) | IC50 [7] | Ki [7] | IC50 [8] | IC50 (Cytochrome P450 2E1) | Ki (Cytochrome P450 2E1) | IC50 [9]
